Reference: patent US20160280651A1, “COMPOUNDS THAT INDUCE ABA RESPONSES” (THE REGENTS OF THE UNIVERSITY OF CALIFORNIA, priority 2013, published 2016)
Entries after “also recorded” stand apart in the source; their conditions may differ.

Assays:
[1] = test system: PYR/PYL receptors and the PP2C HAB1; test: Yeast two-hybrid agonist assay (screens and receptor sensitivity); type: cell-based, Arabidopsis; conditions: 5 μM of test chemicals
Description: FIG. 1A-FIG. 1B. Novel ABA agonists bind to multiple PYR/PYL. (A) Chemical structure of naturally occurring (+)-ABA, its (−)analog and selected ABA agonists. (B) Yeast two-hybrid agonist assays of PYR/PYL receptor sensitivity to 5 μM of test chemicals. Specific PYR/PYL Receptors and the PP2C HAB1 are expressed as Ga14 BD or AD fusion proteins respectively, as described in the text.
A previously described yeast two-hybrid system was used in high throughput screens (HTS) to identify ABA agonists (see, Peterson F C, et al. (2010) Structural basis for selective activation of ABA receptors. Nature Structural & Molecular Biology 17(9):1109-1111). In this system the agonist promoted receptor-PP2C interaction drives expression of a URA3 or HIS3 reporter gene and rescues uracil or histidine auxotrophy of parental strains (Peterson F C, et al. (2010); Vidal M, Brachmann R K, Fattaey A, Harlow E, & Boeke J D (1996) Reverse two-hybrid and one-hybrid systems to detect dissociation of protein-protein and DNA-protein interactions. Proceedings of the National Academy of Sciences of the United States of America 93(19):10315-10320). […]

[2] = test system: broccoli, radish, alfalfa, soybean, barely, wheat, sorghum and maize seeds; test: Germination inhibition in diverse species; type: in vivo; conditions: barley
Excerpt: FIG. 13A-FIG. 13E. LC66C6 modulates ABA responses in diverse species. Germination inhibition (A) and transpirational water loss in detached leaves 2-hours after detachment (B) in response to compounds shown. The expression of ABA-responsive marker genes in Soybean (C), Barley (D) and Maize (E) after application of chemicals. D, P, L and A indicate DMSO, pyrabactin, LC66C6 and (+)-ABA, respectively.

| SMILES | Agonist activity and receptor selectivity in yeast two-hybrid assay [1] | Inhibition of germination in diverse species [2] |
| --- | --- | --- |
| CCCN1C(=O)CCc2cc(NS(=O)(=O)Cc3ccc(C)cc3)ccc21 [LC66C6] | agonist of multiple PYR/PYL receptors | inhibits germination; also recorded: greater than pyrabactin |
| O=S(=O)(NCc1ccccn1)c1ccc(Br)c2ccccc12 [pyrabactin, reference compound] | much greater receptor selectivity than ABA or the new agonist LC66C6 |  |
